Assay results taken from US20040110253A1, “Method for identifying MHC-presented peptide epitopes for T cells” (priority 2002, published 2004).
Ends that are not written are not given here.

What was measured:
YAe-62 TCR = test: Binding of fluorescent soluble YAe-62 αβTCR to SF9 cells displaying IA^b-peptide (flow cytometry); set-up: species or system mouse; conditions: for YAe-62 TCR Binding (% of p3K): IA^b-peptide displayed on baculovirus-infected SF9 cells, fluorescent soluble αβTCR; for binding of YAe-62 αβTCR to IA^b-peptide complex (in words): insect cells displaying IA^b-peptide
Method: (§1) Next fluorescent, soluble αβTCR reagents were prepared for use in flow cytometry to detect insect cells displaying the appropriate MHCII/peptide combination. Fluorescent multivalent versions of the soluble αβTCR's of B3K-06 and YAe-62 bound to insect cells displaying the IA^b-p3K, but not a control MHCII-peptide combination (data not shown).
(§2) Insect cells displaying IA^b-p3K bound the αβTCR reagents very heterogeneously, probably due to heterogeneous expression of IA^b-p3K due to variations in the multiplicity of infection and the lack of synchrony in viral infection and expression. […] In this case, there was a direct correlation between the amount of surface IA^b-p3K expressed by an individual insect cell and the amount of αβTCR bound with cells bearing a particular level of IA^b-p3K binding the αβTCRs uniformly (data not shown). Therefore, comparing the two types of staining gave a useful tool to evaluate the relation between peptide sequence and the strength of αβTCR binding (see below).
(§3) A large number of SF9 insect cells were infected at an MOI of about one with baculovirus carrying the IA^b peptide library. After 3-4 days the cells were analyzed with fluorescent B3K-06 or YAe-62 soluble αβTCR, as described above. Fluorescent cells were sorted and cultured with fresh uninfected SF9 cells to create new infected cells for analysis and an enriched viral stock. This process was repeated 3 to 4 times. In each case, when no clear fluorescent population was apparent, the brightest 1% of the infected cells was sorted. In later rounds, the majority of the cells in a clearly distinguishable fluorescent population were sorted. Infected cells binding the B3K-06 αβTCR were apparent only after two rounds of enrichment but eventually yielded a population with uniform binding (data not shown). Infected cells that bound the YAe-62 αβTCR were detectable even with the initial library of viruses and enriched rapidly to yield a population with more heterogeneous levels of binding to the receptor (data not shown).
(§4) At the time of the final enrichment, single infected cells binding each of αβTCRs were sorted into individual wells of 96 well culture plates containing fresh SF9 cells in order to prepare clonal viral stocks. These stocks were used to infect fresh SF9 cells which were reanalyzed for binding to the appropriate αβTCR as described above. […] The majority of PCR fragments yielded a single unambiguous peptide sequence. These viruses were used to infect SF9 cells that expressed mouse ICAM and B7.1. The infected cells were used as APCs for either the B3K-06 or YAe-62 hybridoma with IL-2 production being a measure of IA^b-peptide recognition. Viruses expressing IA^b-peptide combinations that neither bound to the αβTCR nor stimulated the T cell hybridomas were used as negative controls and virus producing IA^b-p3K was used as the positive control. Results with a few representative virus clones are shown in FIG. 10A and 10B, and a summary of all of the results are shown in Table 1.

YAe-62 hybridoma = test: IL-2 production by YAe-62 T cell hybridoma in response to IA^b-peptide presenting APCs; type: cell-based, mouse; conditions: for IL-2 Production (units/ml): YAe-62 hybridoma, infected SF9 cells expressing mouse ICAM and B7.1 as APCs; for difference in the amount of IL-2 production stimulated by the two peptides: SEQ ID NO:39 versus SEQ ID NO:40
Excerpt: The mouse T cell hybridoma, referred to as YAe-62, was chosen as a representative of broadly reactive T cells present in mice carrying transgenes and gene knockouts that lead to expression of MHC Class II that are almost completely occupied by a single peptide (Ignatowicz et al., 1996, Cell 84:521-529). The T cell was produced by immunization with p3K bound to IA^b in mice that express IA^b covalently linked to Eα, a dominant IA^b binding peptide derived from the MHC Class II IEα chain. YAe-62 responds to IA^b-p3K, but not to APCs lacking MHC Class II or to the IA^b-pEα APCs from the mouse from which it was derived. YAe-62 is also reactive against many cell types bearing IA^b in the absence of p3K. It also responds to APCs from a variety of mice carrying other alleles of IA. The inventors have postulated that this T cell responds mainly to the evolutionarily conserved regions of the IA molecule with less dependence on the peptide than seen with conventional T cells (Marrack et al., 2001, J. Immunol. 167:617-621). […] From the X-ray crystal structure of IA^b (Liu et al., 2002, supra) enough was known about how peptides bind to this MHC molecule to design a strategy in which the major MHC anchor amino acids of the peptide could be held constant and only five surface exposed amino acids need be varied in the library (FIG. 8).
as §4

B3K-06 hybridoma = test: IL-2 production by B3K-06 T cell hybridoma in response to IA^b-peptide presenting APCs; type: cell-based, mouse; conditions: for IL-2 Production (units/ml): B3K-06 hybridoma, infected SF9 cells expressing mouse ICAM and B7.1 as APCs
Excerpt: The hybridoma, B3K-06 was produced from wild-type C57BL/6 mice immunized conventionally with the peptide (Rees et al., 1999, supra). […] Also, as is commonly seen with conventional T cells, the interaction of the αβ TcR of B3K-06 with IA^b-p3K is very sensitive to changes in any of the peptide amino acids exposed on the surface of the IA^b-p3K complex. Mutation of positions Q2, K3, K5, N7 or K8 to alanine virtually eliminates recognition of p3K by B3K-06 (Liu et al., 2002, supra and additional data not shown).
as §4

B3K-06 TCR = test: Binding of fluorescent soluble B3K-06 αβTCR to SF9 cells displaying IA^b-peptide (flow cytometry); set-up: species or system mouse; conditions: for B3K-06 TCR Binding (% of p3K): IA^b-peptide displayed on baculovirus-infected SF9 cells, fluorescent soluble αβTCR
Method: as §1, §2, §3, §4

| Substance | YAe-62 TCR Binding (% of p3K) (YAe-62 TCR) | IL-2 Production (units/ml) (YAe-62 hybridoma) | other results |
| --- | --- | --- | --- |
| F E A A L A R A V P A V (FEAALARAVPAV; synthetic peptide motif) [SEQ ID NO:33] | 23.4 % of p3K | <3 units/ml |  |
| F E A E K A K A L T A V (FEAEKAKALTAV; synthetic peptide motif) [SEQ ID NO:28] | 49.6 % of p3K | 9 units/ml |  |
| F E A E R A R A A S A V (FEAERARAASAV; synthetic peptide motif) [SEQ ID NO:36] | 2.3 % of p3K | <3 units/ml |  |
| F E A F M A R A K A A V (FEAFMARAKAAV; synthetic peptide motif) [SEQ ID NO:21] | 107.5 % of p3K | 1256 units/ml |  |
| F E A F P A K A L R A V (FEAFPAKALRAV; synthetic peptide motif) [SEQ ID NO:30] | 38.5 % of p3K | 47 units/ml |  |
| F E A H T A L A P R A V (FEAHTALAPRAV) [SEQ ID NO:23] | 80.4 % of p3K | 6 units/ml |  |
| F E A L P A R A A A A V (FEALPARAAAAV) [SEQ ID NO:22] | 70.4 % of p3K | 681 units/ml | binding of YAe-62 αβTCR to IA^b-peptide complex (in words) (YAe-62 TCR): nearly equally well; difference in the amount of IL-2 production stimulated by the two peptides (YAe-62 hybridoma): 100 fold |
| F E A L S A K A N T A V (FEALSAKANTAV; synthetic peptide motif) [SEQ ID NO:31] | 33.3 % of p3K | <3 units/ml |  |
| F E A L Y A K A L T A V (FEALYAKALTAV; synthetic peptide motif) [SEQ ID NO:19] | 98.7 % of p3K | 1717 units/ml |  |
| F E A P Y A Q A P H A V (FEAPYAQAPHAV; synthetic peptide motif) [SEQ ID NO:38] | 1.3 % of p3K | <3 units/ml |  |
| F E A Q G A L A N I A V (FEAQGALANIAV; synthetic peptide motif) [pEα, negative control, reference compound] | 0.3 % of p3K | <3 units/ml | response of YAe-62 to IA^b-peptide APCs (YAe-62 hybridoma; APCs bearing IA^b-peptide): not; IL-2 Production (units/ml) (B3K-06 hybridoma): <3 units/ml; B3K-06 TCR Binding (% of p3K) (B3K-06 TCR): 0.4 % of p3K |
| F E A Q R A R A A R A V (FEAQRARAARAV; also: tethered to IA^b) [SEQ ID NO:16] |  |  | IL-2 Production (units/ml) (B3K-06 hybridoma): 25 units/ml; stimulation of B3K-06 to produce IL-2 (in words) (B3K-06 hybridoma; bound to IA^b on B7/ICAM expressing SF9 APCs): able to stimulate B3K-06 to produce IL-2, but not nearly as well as did p3K; B3K-06 TCR Binding (% of p3K) (B3K-06 TCR): 66.8 % of p3K; binding of B3K-06 αβTCR to IA^b-peptide complex (in words) (B3K-06 TCR; insect cells displaying IA^b-peptide): only slightly less well than did the IA^b-p3K complex |
| F E A Q V A H A L P A V (FEAQVAHALPAV; synthetic peptide motif) [SEQ ID NO:29] | 48.6 % of p3K | 32 units/ml |  |
| F E A R C A K A S T A V (FEARCAKASTAV; synthetic peptide motif) [SEQ ID NO:20] | 102.5 % of p3K | 467 units/ml |  |
| F E A R E A K A L A A V (FEAREAKALAAV; synthetic peptide motif) [SEQ ID NO:32] | 27.0 % of p3K | <3 units/ml |  |
| F E A R L A S A G K A V (FEARLASAGKAV; synthetic peptide motif) [SEQ ID NO:35] | 2.6 % of p3K | <3 units/ml |  |
| F E A R T A H A R N A V (FEARTAHARNAV; synthetic peptide motif) [SEQ ID NO:37] | 1.4 % of p3K | <3 units/ml |  |
| F E A S K A S A A V A V (FEASKASAAVAV; synthetic peptide motif) [SEQ ID NO:34] | 13.0 % of p3K | <3 units/ml |  |
| F E A S L A R A R S A V (FEASLARARSAV) [SEQ ID NO:24] | 76.2 % of p3K | 5 units/ml |  |
| F E A T T A R A L T A V (FEATTARALTAV; synthetic peptide motif) [SEQ ID NO:27] | 52.0 % of p3K | 6 units/ml |  |
| F E A Y T A R A R T A V [SEQ ID NO:25] (FEAYTARARTAV) | 58.3 % of p3K | 5 units/ml |  |
| F E A Y T A R A R T A V [SEQ ID NO:26] (FEAYTARARTAV; synthetic peptide motif) | 54.9 % of p3K | 7 units/ml |  |
| FEAQTAKARGAVD (synthetic peptide motif) |  |  | binding of YAe-62 αβTCR to IA^b-peptide complex (in words) (YAe-62 TCR): nearly equally well; difference in the amount of IL-2 production stimulated by the two peptides (YAe-62 hybridoma): 100 fold |
